The text below walks through data of patent US10730922B2, “Composition and method for affecting the binding of antigen-binding polypeptides to antigens” (Miltenyi Biotec GmbH, priority 2016, dated 2020).

Holding throughout (assay type): binding, human
One test has as its system CD4. The test is described as follows: Competitive staining of PBMC with anti-CD4 scFv-CaM-fusions, flow cytometry. The settings on record: FIG. 7C. An excerpt:
(§1) To investigate whether the linkers identified to provide modulation of binding in scFv D1.3 can be used as a “universal” module to change binding properties in other scFv fragments than D1.3, the characterized CaM-linker variants were cloned into other scFv antibodies with different specificities. The specificities were chosen according to their utility in future cell staining and separation applications, with two scFvs directed against different human clusters of differentiation (CD14, CD4) and the small hapten biotin. To identify M13 peptide-dependent scFv-CaM-variants for those specificities, human blood cells (PBMC) were stained using purified scFvs and subsequently analysed by flow cytometry. Bound scFvs were detected with fluorescently labeled anti-His-antibodies.
(§2) The production and purification of different scFv-fusions was performed as described in Example 3. All antibodies and staining reagents used for flow cytometry applications were from Miltenyi Biotec (Bergisch Gladbach, Germany). For stainings with anti-Biotin scFv-variants, PBMC (peripheral blood mononuclear cells) were prestained with appropriate IgG-conjugates. The stainings were performed in 1.5 mL microtubes. 1×10^6 PBMC per sample were incubated on ice for 10 min in 110 μL 1×B-TBS (1×TBS+0.5% [w/v] bovine serum albumin)+5 mM CaCl2 (pH 7.4) containing anti-CD14-Biotin (dilution: 1:11). The reaction was stopped by addition of 1 mL buffer and centrifugation at 300 g for 5 min at 4° C. The supernatant was removed completely and the pellet was stored on ice and resuspended in buffer immediately before the next staining step. The following stainings were performed in 96-well polypropylene plates. Purified scFvs were diluted to appropriate concentrations in 50 μL 1×B-TBS/5 mM CaCl2 (pH 7.4 [anti-Biotin] or pH 8.0 [anti-CD14, anti-CD4]) per well. For competitive screenings, peptide (M13 peptide [Anaspec, Fremont, USA], M13-variants library and CBP (calmodulin-binding peptide) library [Genscript, Piscataway, USA]) was added in molar excess in a total volume of 5 μL per well, whereas the control stainings were supplied with 5 μL 1×B-TBS/5 mM CaCl2. The diluted scFvs were preincubated for 45 min at RT and afterwards chilled on ice for 5 min. […]
(§3) Calmodulin binds to a variety of binding partners. […] On the one hand, 38 mutated variants of the M13 peptide were analysed, e.g. substitution mutants known to have higher affinities for calmodulin, truncated variants and combinations thereof. In addition, 29 peptides derived from further calmodulin-binding proteins like calcium ATPase, spectrin and nitric oxidase synthase were analysed with regard to potential binding modulating properties. […]

The nature of test [1]: Competitive staining of anti-CD14-Biotin prestained PBMC with anti-Biotin scFv-CaM-fusions, flow cytometry. The settings on record: opposite relative to M13 peptide, FIG. 7B.
From the text: as §1
The production and purification of different scFv-fusions was performed as described in Example 3. […]
as §3
(Flow cytometry measures light scatter and fluorescence of single cells or particles in a stream.)

The next test relates to CD14. The test is described as follows: Competitive staining of PBMC with anti-CD14 scFv-CaM-fusions, flow cytometry. The settings on record: peptide in molar excess, FIG. 7A.
From the text: as §1, §2, §3

For the substance “CBP-Var6: another derivative of calcium-transporting ATPase (RGQILWFRGLNRIQTQIKVVNAFS; CBP-Var6; peptide derived from protein of Gallus gallus)”, the “change in fluorescence intensity, anti-CD4 scFv M-variants” value in the test on CD4 (relative to M13 peptide) is “further increase in fluorescence intensity”. For the same substance, the “switching behaviour, anti-Biotin scFv-CaM-fusions M-1, M-2” value in test [1] is “opposite switching behaviour”.

As to “CBP-Var8: calmodulin-binding peptide, a derivative of spectrin (KTASPWKSARLMVHTVATFNSIKE; CBP-Var8; peptide from protein of Homo sapiens)”, the “signal change compared to M13 peptide, anti-CD14 scFv C-terminally permutated and linear variant” value with CD14 was “slightly higher decrease”.

Take “CBP-Var10: derived from ionotropic glutamate receptor NMDA1 (KKKATFRAITSTLASSFKRRRSSK; CBP-Var10; peptide from protein of Homo sapiens)”: the “change in binding signal, linear anti-CD4 scFv clone” value with CD4 was “unexpected decrease in binding signal”.

Take “M13 peptide: calmodulin-binding peptide M13 (residues 577-602 of skeletal muscle myosin light chain kinase) [reference compound]”: the “change in binding signal, linear anti-CD4 scFv clone” value in the test with CD4 is “did not have any influence at all”. For the same substance, the “change in binding signal, C-terminally permutated clones of anti-CD4 scFv” value in the test with CD4 (peptide in molar excess, 'the same effect' refers to further increase in fluorescence intensity) is listed as “increase in binding signal”.

For the substance “M13-Var5: variant of the known high affinity mutant of M13 (RWKKAFIAVSAANRFKKIS; M13-Var5)”, the “signal change compared to M13 peptide, anti-CD14 scFv clones permutated in the middle of CaM and linear clone” value (shortened to “signal change … of CaM and linear clone”) in the test on CD14 is recorded as “higher signal decrease”.

For “M13-Var6: variant of the known high affinity mutant of M13 (WKKAFIAVSAANRFKKIS; M13-Var6)”, in the test with CD14, the “signal change … of CaM and linear clone” value was “higher signal decrease”.

Consider “M13-Var7: variant of the known high affinity mutant of M13 (RWKKAFIAVSAANRFKKI; M13-Var7)”, for which, in the test with CD14, the “signal change … of CaM and linear clone” value is on record as “higher signal decrease”.
